As usually defined, the EC50 is the midpoint of the concentration-response curve. A high value points to weaker potency.

In the first assay the test system is FLU A (PR/8/34). The assay is described as follows: Flu A Neuraminidase Antiviral Assay.
Conditions: not given
The format is cell-based.
On to `CN1C(=O)c2c(O)c(=O)ccn2N2C(c3c(F)cccc3F)C(CC(F)(F)F)CCC12` (single isomer, unassigned) [Compound 123B, 1-(2,6-difluorophenyl)-7-hydroxy-5-methyl-2-(2,2,2-trifluoroethyl)-1,2,3,4,4a,5-hexahydrodipyrido[1,2-b:2′,1′-f][1,2,4] triazine-6,8-dione], for which the EC50 is 4.2 nM.

`CC1(c2ccccc2)CCCC2N(CC3CC(F)(F)C3)C(=O)c3c(O)c(=O)ccn3N21` (single isomer, unassigned) [Compound 45B, 5-((3,3-difluorocyclobutyl)methyl)-7-hydroxy-1-methyl-1-phenyl-1,2,3,4,4a,5-hexahydrodipyrido[1,2-b:2′,1′-f][1,2,4]triazine-6,8-dione] displayed an EC50 of 10.6 nM.

Regarding `CN1C(=O)c2c(O)c(=O)ccn2N2C1CCCC2(C)c1cccc(Cl)c1` (single isomer, unassigned) [Compound 28B, 1-(3-chlorophenyl)-7-hydroxy-1,5-dimethyl-1,2,3,4,4a,5-hexahydrodipyrido[1,2-b:2′,1′-f][1,2,4]triazine-6,8-dione], the EC50 is 278 nM.

`CCN1C(=O)c2c(O)c(=O)ccn2N2C(c3ccccc3)C(CC(F)(F)F)CCC12C` (single isomer, unassigned) [Compound 82B, 5-ethyl-7-hydroxy-4a-methyl-1-phenyl-2-(2,2,2-trifluoroethyl)-1,2,3,4,4a,5-hexahydrodipyrido[1,2-b:2′,1′-f][1,2,4]triazine-6,8-dione] yielded an EC50 of 2.3 nM.

The molecule `CCN1C(=O)c2c(O)c(=O)cc(COC)n2N2C(c3ccccc3)C(CC(F)(F)F)CCC12` (stereo not drawn) [Compound 131B, 5-ethyl-7-hydroxy-10-(methoxymethyl)-1-phenyl-2-(2,2,2-trifluoroethyl)-1,2,3,4,4a,5-hexahydrodipyrido[1,2-b:2′,1′-f][1,2,4]triazine-6,8-dione] displayed an EC50 above 810 nM.

Molecule `CC1(c2cc(C(F)(F)F)ccn2)CCCC2N(CC3(C(F)(F)F)CC3)C(=O)c3c(O)c(=O)ccn3N21` (single isomer, unassigned) [Compound 52B, 7-hydroxy-1-methyl-5-((1-(trifluoromethyl)cyclopropyl)methyl)-1-(4-(trifluoromethyl)pyridin-2-yl)-1,2,3,4,4a,5-hexahydrodipyrido[1,2-b:2′,1′-f][1,2,4]triazine-6,8-dione] yielded an EC50 above 2700 nM.

Turning to `CN1C(=O)c2c(O)c(=O)ccn2N2C(c3cccc(F)c3)CCCC12` (single isomer, unassigned) [Compound 10B, 1-(3-fluorophenyl)-7-hydroxy-5-methyl-1,2,3,4,4a,5-hexahydrodipyrido[1,2-b:2′,1′-f][1,2,4]triazine-6,8-dione], it took 86.5 nM to reach a half-maximal effect (EC50).

Molecule `CCN1C(=O)c2c(O)c(=O)ccn2N2C(c3ccccc3F)C(CCC(F)F)CCC12` (single isomer, unassigned) [Compound 101A, 2-(3,3-difluoropropyl)-5-ethyl-1-(2-fluorophenyl)-7-hydroxy-1,2,3,4,4a,5-hexahydrodipyrido[1,2-b:2′,1′-f][1,2,4]triazine-6,8-dione] showed an EC50 of 148 nM.

Regarding `CN1C(=O)c2c(O)c(=O)ccn2N2C1CCCC2(C)c1ncccc1F` (single isomer, unassigned) [Compound 27A, 1-(3-fluoropyridin-2-yl)-7-hydroxy-1,5-dimethyl-1,2,3,4,4a,5-hexahydrodipyrido[1,2-b:2′,1′-f][1,2,4]triazine-6,8-dione], the EC50 was found to be 859 nM.

With `Cc1ccccc1C1C(CC(F)(C(F)(F)F)C(F)(F)F)CCC2N(C)C(=O)c3c(O)c(=O)ccn3N12` (single isomer, unassigned) [Compound 81A, 7-hydroxy-5-methyl-2-(2,3,3,3-tetrafluoro-2-(trifluoromethyl)propyl)-1-(o-tolyl)-1,2,3,4,4a,5-hexahydrodipyrido[1,2-b:2′,1′-f][1,2,4]triazine-6,8-dione], the EC50 amounted to 19.1 nM.

As for `CN1C(=O)c2c(O)c(=O)ccn2N2C(c3ccccc3)CCCC12C` (single isomer, unassigned) [Compound 59B, 7-hydroxy-4a,5-dimethyl-1-phenyl-1,2,3,4,4a,5-hexahydrodipyrido[1,2-b:2′,1′-f][1,2,4]triazine-6,8-dione], the EC50 turned out to be 12.1 nM. This EC50 lies about 1.6-fold lower than the previous one.

`Cc1cccnc1C1(C)CCCC2N(CC(F)(F)F)C(=O)c3c(O)c(=O)ccn3N21` (single isomer, unassigned) [Compound 44A, 7-hydroxy-1-methyl-1-(3-methylpyridin-2-yl)-5-(2,2,2-trifluoroethyl)-1,2,3,4,4a,5-hexahydrodipyrido[1,2-b:2′,1′-f][1,2,4]triazine-6,8-dione] registered an EC50 above 8100 nM.

`CN1C(=O)c2c(O)c(=O)ccn2N2C1CCCC2(C)c1ccccc1Cl` (single isomer, unassigned) [Compound 20A, 1-(2-chlorophenyl)-7-hydroxy-1,5-dimethyl-1,2,3,4,4a,5-hexahydrodipyrido[1,2-b:2′,1′-f][1,2,4]triazine-6,8-dione] had a half-maximal effective concentration (EC50) of 564 nM. This lies in the sub-micromolar range.

Molecule `CCCC1CCC2N(CC)C(=O)c3c(O)c(=O)ccn3N2C1c1ccccc1F` (single isomer, unassigned) [Compound 96A, 5-ethyl-1-(2-fluorophenyl)-7-hydroxy-2-propyl-1,2,3,4,4a,5-hexahydrodipyrido[1,2-b:2′,1′-f][1,2,4]triazine-6,8-dione] registered an EC50 above 810 nM.

In the case of `CN1C(=O)c2c(O)c(=O)ccn2N2C(c3ccccc3F)C(CC(F)F)CCC12` (single isomer, unassigned) [Compound 113B, 2-(2,2-difluoroethyl)-1-(2-fluorophenyl)-7-hydroxy-5-methyl-1,2,3,4,4a,5-hexahydrodipyrido[1,2-b:2′,1′-f][1,2,4]triazine-6,8-dione], the EC50 was 7.3 nM. In other words, the single-digit nanomolar range.

Molecule `CC1(c2ccccc2)CCCC2N(CC3CC3)C(=O)c3c(O)c(=O)ccn3N21` (single isomer, unassigned) [Compound 37B, 5-(cyclopropylmethyl)-7-hydroxy-1-methyl-1-phenyl-1,2,3,4,4a,5-hexahydrodipyrido[1,2-b:2′,1′-f][1,2,4]triazine-6,8-dione] yielded an EC50 of 1240 nM. Against the preceding molecule, the EC50 is about 170-fold higher.

Take `CC(C1CCC2N(C)C(=O)c3c(O)c(=O)ccn3N2C1c1ccccc1)C(F)(F)F` (single isomer, unassigned) [Compound 109B, 7-hydroxy-5-methyl-1-phenyl-2-(1,1,1-trifluoropropan-2-yl)-1,2,3,4,4a,5-hexahydrodipyrido[1,2-b:2′,1′-f][1,2,4]triazine-6,8-dione]: a half-maximal effect (EC50) was put at 5.4 nM.

The molecule `CN1C(=O)c2c(O)c(=O)ccn2N2C(c3ccccc3)C(CC(F)(F)F)CCC12` (single isomer, unassigned) [Compound 118A, 7-hydroxy-5-methyl-1-phenyl-2-(2,2,2-trifluoroethyl)-1,2,3,4,4a,5-hexahydrodipyrido[1,2-b:2′,1′-f][1,2,4]triazine-6,8-dione] returned an EC50 above 8100 nM.

`CN1C(=O)c2c(O)c(=O)ccn2N2C(c3ccccc3)C(CCC(F)(F)F)CCC12C` (single isomer, unassigned) [Compound 78B, 7-hydroxy-4a,5-dimethyl-1-phenyl-2-(3,3,3-trifluoropropyl)-1,2,3,4,4a,5-hexahydrodipyrido[1,2-b:2′,1′-f][1,2,4]triazine-6,8-dione]: a half-maximal effect (EC50) was put at 2.9 nM. In other words, the single-digit nanomolar range.

For `O=C1c2c(O)c(=O)ccn2N2C(c3ccccc3)CCCC2N1CC1CC1` (single isomer, unassigned) [Compound 56B, 5-(cyclopropylmethyl)-7-hydroxy-1-phenyl-1,2,3,4,4a,5-hexahydrodipyrido[1,2-b:2′,1′-f][1,2,4]triazine-6,8-dione], it took 6850 nM to reach a half-maximal effect (EC50).

`CN1C(=O)c2c(O)c(=O)ccn2N2C(c3ccccc3)C(C3(C(F)(F)F)CC3)CCC12` (single isomer, unassigned) [Compound 108B, 7-hydroxy-5-methyl-1-phenyl-2-(1-(trifluoromethyl)cyclopropyl)-1,2,3,4,4a,5-hexahydrodipyrido[1,2-b:2′,1′-f][1,2,4]triazine-6,8-dione]: the EC50 worked out at 9.4 nM.

The molecule `CN1C(=O)c2c(O)c(=O)ccn2N2C(c3ccccc3)C(CC(F)(F)F)CCC12` (single isomer, unassigned) [Compound 118B, 7-hydroxy-5-methyl-1-phenyl-2-(2,2,2-trifluoroethyl)-1,2,3,4,4a,5-hexahydrodipyrido[1,2-b:2′,1′-f][1,2,4]triazine-6,8-dione] had an EC50 of 3.1 nM.

Turning to `CN1C(=O)c2c(O)c(=O)ccn2N2C(c3ccccc3)C(c3ccc(F)c(F)c3F)CCC12` (single isomer, unassigned) [Compound 85B, 7-hydroxy-5-methyl-1-phenyl-2-(2,3,4-trifluorophenyl)-1,2,3,4,4a,5-hexahydrodipyrido[1,2-b:2′,1′-f][1,2,4]triazine-6,8-dione], it took 9.7 nM to reach a half-maximal effect (EC50). This EC50 lies about 3.1-fold higher than the previous one.

The assay is the same for the next values; noted with them: MDCK, 48 h.
In the case of `CN1C(=O)c2c(O)c(=O)ccn2N2C1CCC1(CCC(F)(F)C1)C2c1ccccc1` (single isomer, unassigned) [Compound 68A, 3,3-difluoro-7′-hydroxy-5′-methyl-1′-phenyl-3′,4′,4a′,5′-tetrahydro-1′H-spiro[cyclopentane-1,2′-dipyrido[1,2-b:2′,1′-f][1,2,4]triazine]-6′,8′-dione], the response was half-maximal at 349 nM (EC50).

Turning to `CN1C(=O)c2c(O)c(=O)ccn2N2C(c3ccccc3)C(O)CCC12` (single isomer, unassigned) [Compound 135A, 2,7-dihydroxy-5-methyl-1-phenyl-1,2,3,4,4a,5-hexahydrodipyrido[1,2-b:2′,1′-f][1,2,4]triazine-6,8-dione], the 50% effective concentration (EC50) amounted to 428 nM. This EC50 and that of the molecule before are within 1.5-fold of each other.

In the case of `CC(=O)N(C)[C@H]1CC[C@@H](c2ccccc2)N2[C@@H]1N(C)C(=O)c1c(O)c(=O)ccn12` [Compound 145, N-((1S,4S,4aS)-7-hydroxy-5-methyl-6,8-dioxo-1-phenyl-1,2,3,4,4a,5,6,8-octahydrodipyrido[1,2-b:2′,1′-f][1,2,4]triazin-4-yl)-N-methylacetamide], the EC50 was above 810 nM.

Molecule `CN1C(=O)c2c(O)c(=O)ccn2N2[C@H](c3ccccc3)[C@H](OCC3CCCC3)CC[C@@H]12` [Compound 158, (1R,2R,4aS)-2-(cyclopentylmethoxy)-7-hydroxy-5-methyl-1-phenyl-1,2,3,4,4a,5-hexahydrodipyrido[1,2-b:2′,1′-f][1,2,4]triazine-6,8-dione] gave an EC50 of 102 nM. This counts as sub-micromolar.

The values are drawn from US20240018145A1, “[…]-DEPENDENT EN[…] TREATING OR […]” (priority 2020, published 2024).
